Test results as given in patent US6997270B2, “Compounds and method for generating a highly efficient membrane in water-based drilling fluids” (Halliburton Energy Services, Inc., priority 2000, dated 2006).

Columns and labels:
[1] = Membrane efficiency screening test (membrane efficiency screening equipment); details: about 25° Celsius, about 15 MPa
Method: Two types of test equipment are used for the present invention: (i) membrane efficiency screening equipment for tests conducted at 25° Celsius and the test solution at 15 MPa, and (ii) autonomous triaxial test equipment for tests conducted at temperatures above 25° Celsius and/or the test solution at 35 MPa.
The membrane efficiency screening equipment has six test cells. Six different test solutions can be tested under simulated downhole pressure conditions, at any one time with independent, individual test cell control. Referring to FIG. 4, the parts of the cell are shown as follows: Cell-1; Base-2; Bleed Port-3; Confining Fluid Port-4; Downstream Pressure Line (pore fluid)-5; Upstream Pressure Line (test solution)-6; Knurl-7; Top Platen-8; Membrane-9; Sample-10; Bottom Platen-11; O-Rings-12; Collar-13; and Seal-14.
The cell of FIG. 4 has a confining pressure and pore pressure capacity of 35 MPa and 20 MPa respectively. The confining pressure is applied with a Haskel pump and controlled with a high precision stepping motor pump control system. […] Two separate high-pressure gas cylinders provide the upstream and downstream pressures which are controlled by high pressure regulators.
The test procedures for the membrane efficiency screening equipment are as follows: • (a) bleed top (downstream) and bottom (upstream) platens 8 and 11 with simulated pore fluid; • (b) place a sample 10 (25 mm diameter and approximately 10 mm long) between the platens 8 and 11; • (c) jacket the sample in a 1.0 mm thick Viton membrane 9; • (d) mount O-rings 12 over the jacket on the platens 8 and 11; • (e) mount the cell 1; • (f) fill the cell 1 with water; • (g) apply a confining pressure of 20 MPa (via port 4); • (h) apply a back (upstream) pressure of 10 MPa (via line 6) and check for flow across the (upstream) platen 8; • (i) open the downstream pressure valve (on line 5) if the (downstream) pressure is less than 10 MPa; • (j) when the downstream pressure has stabilised at 10 MPa (pressure change <50 kPa/hour, i.e. sample has consolidated), increase the upstream pressure to 15 MPa; • (k) when the downstream pressure has increased by at least 2 MPa (pressure transmitted from the upstream end), reduce the upstream pressure to 10 MPa; • (l) when the downstream pressure has stabilised at 10 MPa (pressure change <50 kPa/hour, i.e. sample has reconsolidated), displace the pore fluid at the upstream end with the test solution at 15 MPa (water activity of test solution is not reduced with electrolyte, i.e. essentially the same as that of the shale); • (m) when the downstream pressure has increased and stabilised (pressure transmitted from the upstream end), displace the test solution (at the upstream end) with the lower water activity solution; • (n) adjust the lower water activity solution circulation rate; and • (o) terminate the test when a maximum decrease in the downstream pressure is observed.
The membrane efficiency obtained from a test is defined as percentage ratio of the maximum differential pressure developed across the shale sample (upstream pressure minus minimum downstream pressure during chemical potential stage) and the theoretical osmotic pressure of the test solution-shale system. The theoretical osmotic pressure is given by: [formula] where Π=osmotic pressure (kPa) • R=gas constant (0.083 liter atm mol^−1 ° K^−1) • T=absolute temperature (° K) • V=partial molar volume of water (0.018 litre mol^−1) • Asol=water activity of lower water activity solution • Ash=water activity of shale

[2] = Phase transition to a hexagonal phase (aqueous concentration); format: physicochemical; details: about pH 10; about 25° Celsius
[3] = cited from earlier work
[4] = Membrane efficiency test in autonomous triaxial test equipment (temperatures above 25° Celsius and/or 35 MPa)
Method: Based on the aforementioned fundamental understanding of the membrane generation mechanisms for acid-base species, we have discovered a range of novel compounds for use in water-based drilling fluids that have the capacity to generate a highly efficient membrane on the borehole wall in argillaceous formations. […] Two types of test equipment are used for the present invention: (i) membrane efficiency screening equipment for tests conducted at 25° Celsius and the test solution at 15 MPa, and (ii) autonomous triaxial test equipment for tests conducted at temperatures above 25° Celsius and/or the test solution at 35 MPa.
Referring to FIG. 5, the parts of the cell are shown as follows: Top Plate-20; Bottom Platen-21; Load Cell-22; Top Cap-23; Downstream Pore Pressure Port-24; Removable Cell Body-25; Radial Gauges-26; LVDT-27; Upstream Pore Pressure Port-28; Clamping Ring-29; Upstream Flush Pressure Port-30; O-Ring-31; Membrane-32; Temperature Sensor-33; and Sample 34.
The cell of FIG. 5 has a confining pressure and pore pressure capacity of 70 MPa.
The instruments used to measure the behaviour of the test sample 34 are as follows: • (a) two diametrically-opposed LVDTs (Linear Variable Differential Transformers) 27 mounted between the sample end platens to measure axial deformation of the sample 34; • (b) four cantilever (orthogonal) radial gauges 26 mounted at mid-height of the sample 34 to measure radial deformation; • (c) two thermal sensors 33 to measure sample 34 top and bottom temperatures; • (d) a load cell 22 located underneath the bottom platen 21 to measure axial deviatoric load (not used); • (e) a pressure transducer to measure cell (confining) pressure; and • (f) two pressure transducers to measure pore pressure at both ends of the sample 34.
A computer-controlled system was used to control the cell and pore pressures with stepping motor pumps, and to perform data acquisition. During the test, the cell temperature was maintained constant by placing the autonomous triaxial cell in a temperature-controlled oven. […]

With `Oc1ccc2ccccc2c1` [2-naphthol] as the compound, how does the “Change of membrane generation capacity with pH” value (“Change” below) ([1]; for a given concentration) read?
Its value is “did not change significantly between the pH range”.

With `CCCCCCCC/C=C\CCCCCCCC(=O)[O-].C[N+](C)(C)C` [Tetramethylammonium oleate] as the compound, how does the Membrane efficiency ([1]; about 5 to about 10 wt %, pH about 9, water activity reduced with 33.4 wt % tetramethylammonium chloride) read?
Its Membrane efficiency is “up to 44%”.

And the “Concentration at which phase transition to a hexagonal phase occurs” value [2]?
The value was “about 20 wt %”.

With `CCCCCCCCCCCC(=O)[O-].C[N+](C)(C)C` [tetramethylammonium laurate] as the compound, how does the Membrane efficiency ([1]; about 5 to about 10 wt %, pH about 7.6 to about 11.5, water activity reduced with 33.4 wt % tetramethylammonium chloride) read?
The Membrane efficiency was “up to 57%”.

What about the “Change” value ([1]; for a given concentration) of the same compound?
Its value is “increased significantly when pH was increased from about 7.6 to about 11.5”.

What about the “Concentration at which phase transition to a hexagonal phase occurs” value [2] of the same compound?
The value was “about 20 wt %”.

For `C[Si](O)(O)O` [methyl silanetriol], which pKa [3] is on record?
The pKa was “about 11”.

For `C[N+](C)(C)C.[Cl-]` [tetramethylammonium chloride, reference compound], which Membrane efficiency ([1]; stock solution about 33.4 wt % tetramethylammonium chloride, pH not adjusted) is on record?
The Membrane efficiency was “about 8%”.

For sodium methyl siliconate, which Membrane efficiency ([1]; about 5 to about 10 wt %, pH about 11.9 to about 12.6, 12 wt % sodium chloride or 16 wt % potassium chloride) is on record?
The Membrane efficiency was “up to 86%”.

And the “Change” value ([1]; for a given concentration)?
The value was “increased greatly when pH was reduced from about 12.6 to about 11.9”.

For `[Cl-].[K+]` [potassium chloride, reference compound], which Membrane efficiency ([1]; stock solution about 26.3 wt % potassium chloride, pH not adjusted) is on record?
Its Membrane efficiency is “about 9%”.

With Potassium methyl siliconate as the compound, how does the Membrane efficiency ([1]; about 5 to about 10 wt %, pH about 11.95 to about 12.8, 12, 15 or 20 wt % sodium chloride) read?
Its Membrane efficiency is “up to 80%”.

And the “Change” value ([1]; for a given concentration)?
Its value is “increased greatly when pH was reduced from about 12.8 to about 11.95”.

And the “Effect of temperature on membrane generation capacity” value ([4]; temperature up to about 80° Celsius)?
Its value is “not significantly affected by temperature of up to about 80° Celsius”.

And the “Effect of test solution pressure on membrane generation capacity” value ([4]; test solutions at about 35 MPa)?
Its value is “only slightly reduced”.

What about the Membrane efficiency ([4]; test solutions at about 35 MPa, about 40° Celsius to about 80° Celsius) of the same compound?
Its Membrane efficiency is “approximately 54%”.

Which “Change” value ([1]; about 1 wt % and about 2.5 wt %) does the source give for silicic acid here?
Its value is “essentially the same between pH of about 11.15 and about 12.5”.

And the “Change” value ([1]; about 5 wt % to about 10 wt %)?
Its value is “increases with increase in pH”.

And the Membrane efficiency ([1]; all concentrations evaluated (about 1 to about 10 wt %), pH about 11.15 to about 12.5, 12 wt % sodium chloride)?
The Membrane efficiency was > 70%.
